From ChEMBL document CHEMBL5726800, “Indazole and azaindazole Btk inhibitors” (2019)

How the values were obtained:
[1] = biological target: T1, Tyrosine-protein kinase BTK (Homo sapiens, UniProt Q06187); experiment: 25P Btk Enzyme Activity Assay: Btk enzymatic activity was determined with the LANCE (Lanthanide Chelate Excite) TR-FRET (lime-resolved fluorescence resonance energy transfer) assay. […] To each well of a black non-binding surface Corning 384-well microplate (Corning Catalog #3820), 5 nL of compound (2000 fold dilution in final assay volume of 10 μL) was dispensed, followed by the addition of 7.5 μL of 1× kinase buffer (50 mM Hepes 7.5, 10 mM MgCl2, 0.01% Brij-35, 1 mM EGTA, 0.05% BSA and 1 mM DTT) containing 26.67 pg/μL (266.7 pM) of 25P Btk enzyme (recombinant protein from baculovirus-transfected Sf9 cells: full-length Btk; MW=79378 Da). Following a 60 minute compound and enzyme incubation, each reaction was initiated by the addition of 2.5 μL 1× kinase buffer containing 8 μM biotinylated “A5” peptide (Biotin-EQEDEPEGDYFEWLE-NH2), and 100 μM ATP. The final reaction in each well of 10 consists of 200 pM 25P Btk, 2 μM biotin-A5-peptide, and 25 μM ATP. Phosphorylation reactions were allowed to proceed for 120 minutes. Reactions were immediately quenched by the addition of 20 uL of 1× quench buffer (15 mM EDTA, 25 mM Hepes 7.3, and 0.1% Triton X-100) containing detection reagents (0.626 nM of LANCE-Eu-W1024-anti-phosphoTyrosine antibody, PerkinElmer and 86.8 nM of Streptavidin-conjugated Dylight 650, Dyomics/ThermoFisher Scientific). […]
[2] = biological target: T1, Tyrosine-protein kinase BTK; experiment: 100P Btk Enzyme Activity Assay: Btk enzymatic activity was determined with the LANCE (Lanthanide Chelate Excite) TR-FRET (lime-resolved fluorescence resonance energy transfer) assay. […] To each well of a black non-binding surface Corning 384-well microplate (Corning Catalog #3820), 5 nL of compound (2000 fold dilution in final assay volume of 10 μL) was dispensed, followed by the addition of 7.5 μL of 1× kinase buffer (50 mM Hepes 7.5, 10 mM MgCl2, 0.01% Brij-35, 1 mM EGTA, 0.05% BSA & 1 mM DTT) containing 13.3 pg/μL (133.3 pM) of 100P Btk enzyme (recombinant protein from baculovirus-transfected Sf9 cells: full-length Btk; MW=79378 Da). Following a 60 minute compound and enzyme incubation, each reaction was initiated by the addition of 2.5 μL 1× kinase buffer containing 8 μM biotinylated “A5” peptide (Biotin-EQEDEPEGDYFEWLE-NH2) (SEQ.ID.NO.: 1) and 100 μM ATP. The final reaction in each well of 10 consists of 100 pM 100P Btk, 2 μM biotin-A5-peptide, and 25 μM ATP. Phosphorylation reactions were allowed to proceed for 45 minutes. Reactions were immediately quenched by the addition of 20 uL of 1× quench buffer (15 mM EDTA, 25 mM Hepes 7.3, and 0.1% Triton X-100) containing detection reagents (0.626 nM of LANCE-Eu-W1024-anti-phosphoTyrosine antibody, PerkinElmer and 86.8 nM of Streptavidin-conjugated Dylight 650, Dyomics/ThermoFisher Scientific). […]

T1 sequence (Q06187 whole entry): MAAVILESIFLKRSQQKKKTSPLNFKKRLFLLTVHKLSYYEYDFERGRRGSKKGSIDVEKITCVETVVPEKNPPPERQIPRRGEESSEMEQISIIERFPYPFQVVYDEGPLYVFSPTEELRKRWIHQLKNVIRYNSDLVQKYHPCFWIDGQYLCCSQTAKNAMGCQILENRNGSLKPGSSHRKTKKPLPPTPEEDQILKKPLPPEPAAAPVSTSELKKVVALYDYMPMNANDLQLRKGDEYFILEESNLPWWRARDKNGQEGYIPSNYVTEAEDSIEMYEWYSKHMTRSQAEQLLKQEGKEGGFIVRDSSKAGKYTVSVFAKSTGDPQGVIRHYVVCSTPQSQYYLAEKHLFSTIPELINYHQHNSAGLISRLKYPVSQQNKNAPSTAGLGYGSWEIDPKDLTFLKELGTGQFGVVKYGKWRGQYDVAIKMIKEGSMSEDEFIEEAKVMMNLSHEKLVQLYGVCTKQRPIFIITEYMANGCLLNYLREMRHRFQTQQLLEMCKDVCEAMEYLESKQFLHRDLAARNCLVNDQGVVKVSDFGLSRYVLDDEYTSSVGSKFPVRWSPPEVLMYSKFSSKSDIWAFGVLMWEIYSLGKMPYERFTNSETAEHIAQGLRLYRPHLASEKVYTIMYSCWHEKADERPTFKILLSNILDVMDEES

IC50 [1]: 23.8 nM
IC50 [2]: ≥ 1000 nM
SMILES: Cc1c(NC(=O)c2ccc(C(C)(C)C)cc2F)cccc1-c1cc(-c2cnn(C)c2)c2[nH]nc(N)c2c1
